Data reported in paper PMC11802874, “The hypolipidemic effect of MI-883, the combined CAR agonist/ PXR antagonist, in diet-induced hypercholesterolemia model” (Nature Communications, 2025).
“And” between values parts separate entries of the source, which are not always exact repeats. Identical values can stand only once.

Experiments:
[1] = tested on: primary human hepatocytes (PHH); assay: RT-qPCR mRNA expression in 2D primary human hepatocytes
From the text: The cells were cultivated as 2D monolayers according to the manufacturer’s protocol.
RT-qPCR was used to examine gene expression in 2D and 3D PHH, HepaRG cells, or in mouse liver or intestine (ileum) samples as we have described before[60]–[62].

[2] = tested on: humanized PXR-CAR-CYP3A4/3A7 mice fed HCD; assay: High-cholesterol diet (HCD) study: weights, plasma biochemistry; format: in vivo, mouse; conditions: for ALP / ALT / AST / Albumin / Bilirubin / Fe / UA / Urea / LDH / BW (Fig. 4g) / Chol (Fig. 4h) / Glu (Fig. 4h) / HDL (Fig. 4h) / LDL (Fig. 4h) / LW (Fig. 4g) / LW/BW (Fig. 4g) / TG (Fig. 4h): individual animals
Method: For experiments with a high-cholesterol diet (HCD), mice (18–26 weeks) were pretreated ad libitum for 2 weeks with diet containing 15% fat and 12.5 g/kg of cholesterol (E15103, ssniff, Soest, Germany) (Fig. 4f). After this period, animals were randomly assigned to two groups (control vehicle-treated and MI-883-treated animals, with 9 males and 7 females per group). Animals were dosed orally with MI-883 (5 mg/kg every other day—Monday, Wednesday, Friday, and the following Monday and Wednesday, for a total of 5 doses) or vehicle alone (5% DMSO/5% PEG300/90% corn oil) via oral gavage three times per week. The animals remained on the HCD during the treatment period. Mice were sacrificed after 5 treatments.
Mice were weighted and tissues (livers, blood, duodenum, jejunum, ileum, white fat) were removed, weighted and snap frozen in liquid nitrogen and stored at –80 °C until analysis. Blood was collected from the retro-orbital sinus of mice under isoflurane anesthesia into heparin-coated tubes (Kabe Laboratortechnik GmbH, Nümbrecht-Elsenroth, Germany) after 3 h fasting and analyzed on AU480 biochemistry analyzer (Beckman Coulter, Brea, USA). Sample preparation for bile acid and cholesterol analyses from tissues or feces is described below. One of the liver lobes was fixed in formalin, embedded in paraffin blocks, sectioned, and subjected to H&E staining. Blood was analyzed as described in Supplementary, Chapter 10.
Blood was collected from the retro-orbital sinus of mice under isoflurane anesthesia into heparin-coated tubes (Kabe Laboratortechnik GmbH, Nümbrecht-Elsenroth, Germany) after 3 hours of fasting. Blood was left for 10 minutes at room temperature, and then kept on ice until centrifugation (5,000 g at 4°C for 10 minutes). The collected plasma was stored at -80 °C until measurement. Lipoprotein levels and other plasmatic parameters were measured on an AU480 biochemistry analyzer (Beckman Coulter, Brea, USA).

[3] = first vehicle/MI-883 column pair
[4] = second vehicle/MI-883 column pair

Q: How did the “CYP3A4 mRNA in PHH 2 donors (Fig. 3c)” value ([1]; single agent 5 μM: MI-883, CITCO (5 μM) alone) turn out when NC(=O)c1cc(Cn2cc(-c3c(-c4ccc(Cl)cc4)nc4cc(F)ccn34)nn2)ccc1Cl [MI-883, 2-chloro-5-((4-(2-(4-chlorophenyl)-7-fluoroimidazo[1,2-a]pyridin-3-yl)-1H-1,2,3-triazol-1-yl)methyl)benzamide] was run?
A: 0.6604 and 0.7133

Q: And the “CYP3A4 mRNA in PHH 2 donors (Fig. 3c)” value ([1]; single agent 10 μM: MI-883, Rif (10 μM) alone)?
A: 0.3215 and 0.4561

Q: And the ALP ([2]; HCD female)?
A: 64 and 60 and 66

Q: And the ALT ([2]; HCD female)?
A: 52 and 44 and 50 and 65 and 53 and 31 and 37

Q: What about the AST ([2]; HCD female) of the same molecule?
A: 97 and 85 and 59 and 60 and 100 and 48

Q: And the Albumin ([2]; HCD female)?
A: 29.13 and 29.02 and 28.37 and 27.41 and 25.72 and 27.39 and 28.99

Q: What about the Bilirubin ([2]; HCD female) of the same molecule?
A: 1.92 and 2.23 and 1.15 and 0.79 and 1.09 and 1.2

Q: And the Fe ([2]; HCD female)?
A: 25.95 and 24.87 and 19.99 and 29.01 and 26.38 and 27.47 and 25.24

Q: What about the UA ([2]; HCD female) of the same molecule?
A: 74.13 and 68.35 and 69.17 and 60.17 and 117.85 and 58.32 and 32.43

Q: What about the Urea ([2]; HCD female) of the same molecule?
A: 5.81 and 6.85 and 7.72 and 6.07 and 8.19 and 6.12 and 7.88

Q: What about the ALP ([2]; HCD male) of the same molecule?
A: 60 and 53 and 64 and 50 and 42 and 46 and 69 and 45 and 43

Q: And the ALT ([2]; HCD male)?
A: 335 and 154 and 210 and 103 and 48 and 36 and 40 and 194 and 61

Q: And the AST ([2]; HCD male)?
A: 202 and 190 and 151 and 98 and 62 and 43 and 71 and 125 and 88

Q: What about the Albumin ([2]; HCD male) of the same molecule?
A: 25.95 and 26.89 and 26.71 and 27.24 and 27.46 and 26.93 and 28.1 and 27.95 and 27.85

Q: What about the Bilirubin ([2]; HCD male) of the same molecule?
A: 1.82 and 2.96 and 1.74 and 3.02 and 2.04 and 3.59 and 1.89 and 1.94

Q: What about the Fe ([2]; HCD male) of the same molecule?
A: 21.53 and 13.76 and 24.97 and 21.49 and 28.7 and 25.79 and 20.83 and 28.43 and 27.87

Q: What about the UA ([2]; HCD male) of the same molecule?
A: 56.8 and 93.42 and 54.01 and 55.84 and 44.35 and 31.12 and 35.14 and 37.35 and 25.57

Q: What about the Urea ([2]; HCD male) of the same molecule?
A: 7.34 and 6.71 and 7.14 and 5.73 and 5.13 and 5.97 and 6.54 and 7

Q: What about the “liver weight (LW) and LW/BW” value ([2]; HCD, p.o. 5 mg/kg, five doses every other day) of the same molecule?
A: not after five doses

Q: And the LDH ([2]; HCD, (sex not given))?
A: 1.47 and 1.15 and 1.63 and 0.85 and 1.36 and 1.38 and 0.99 and 1.41 and 1.28

Q: And the LDH ([2]; HCD, vehicle/MI-883 (sex not given))?
A: 1.12 and 1.15 and 1.19 and 1.1 and 1.09

Q: What about the “BW (Fig. 4g)” value [2, 3] of the same molecule?
A: 26.3 and 24.9 and 24.8 and 24.3 and 24 and 23.2

Q: And the “Chol (Fig. 4h)” value [2, 3]?
A: 3.83 and 3.39 and 3.78 and 3.72 and 3.46 and 3.54 and 3.66

Q: And the “Glu (Fig. 4h)” value [2, 3]?
A: 13.29 and 13.05 and 14.81 and 13.6 and 14.89 and 13.61 and 13.46

Q: And the “HDL (Fig. 4h)” value [2, 3]?
A: 2.476 and 2.431 and 2.259 and 2.337 and 2.161 and 2.202 and 2.297

Q: And the “LDL (Fig. 4h)” value [2, 3]?
A: 1.12 and 1.15 and 1.19 and 1.1 and 1.09

Q: What about the “LW (Fig. 4g)” value [2, 3] of the same molecule?
A: 1.78 and 1.62 and 1.65 and 1.52 and 1.64 and 1.48

Q: And the “LW/BW (Fig. 4g)” value [2, 3]?
A: 6.77 and 6.51 and 6.65 and 6.255 and 6.833 and 6.379

Q: And the “TG (Fig. 4h)” value [2, 3]?
A: 1.189 and 1.059 and 1.137 and 1.521 and 2.113 and 1.22 and 1.433

Q: What about the “triglyceride levels in females” value ([2]; second study (HCD), at the level of statistical significance) of the same molecule?
A: some increase

Q: And the “BW (Fig. 4g)” value [2, 4]?
A: 30 and 29.4 and 30.6 and 30.9 and 33.4 and 29.7 and 26.5 and 28.4 and 26.8

Q: What about the “Chol (Fig. 4h)” value [2, 4] of the same molecule?
A: 5.16 and 3.99 and 5.8 and 3.44 and 4.89 and 4.88 and 4.18 and 4.72

Q: What about the “Glu (Fig. 4h)” value [2, 4] of the same molecule?
A: 13.25 and 13.05 and 16.4 and 12.86 and 18.52 and 15.35 and 11.72 and 18.14 and 17.74

Q: What about the “HDL (Fig. 4h)” value [2, 4] of the same molecule?
A: 3.01 and 2.484 and 3.335 and 2.267 and 3.073 and 3.039 and 2.781 and 3.388 and 2.988

Q: And the “LDL (Fig. 4h)” value [2, 4]?
A: 1.47 and 1.15 and 1.63 and 0.85 and 1.36 and 1.38 and 0.99 and 1.41 and 1.28

Q: What about the “LW (Fig. 4g)” value [2, 4] of the same molecule?
A: 1.63 and 1.97 and 2.03 and 1.53 and 2.51 and 2.11 and 1.85 and 1.32 and 1.94

Q: What about the “LW/BW (Fig. 4g)” value [2, 4] of the same molecule?
A: 5.43 and 6.7 and 6.63 and 4.95 and 7.51 and 7.1 and 6.98 and 4.65 and 7.24

Q: What about the “TG (Fig. 4h)” value [2, 4] of the same molecule?
A: 0.993 and 0.808 and 0.849 and 0.608 and 0.516 and 0.697 and 0.709 and 0.93 and 0.706
